In PMC8388125, “Kinetic and Structural Characterization of the Self-Labeling Protein Tags HaloTag7, SNAP-tag, and CLIP-tag” (Biochemistry, 2021):
Positions count from the first letter of the chain named. “And” between values parts separate entries of the source, which are not always exact repeats. Identical values can stand only once. Each block holds one molecule with its values, some of them ahead of it.

Columns and labels:
SNAP^C145A [1] = target: T1, SNAP^C145A (Homo sapiens, UniProt P16455, A127T/A154D/C145A/C150Q/C62A/G131K/G132T/G153L/K125A/K32I/L33F/M134L/N157G/Q115S/Q116H/R128A/R135S/S151G/S152D/S159E); test: Affinity of SNAP^C145A for nonfluorescent substrates via FP competition assay against CP-TMR; assay type: binding
T1 construct: made in house; host or cells: E. coli BL21(DE3)-pLysS
T1 sequence (P16455 1-182 K32I/L33F/C62A/Q115S/Q116H/K125A/A127T/R128A/G131K/G132T/M134L/R135S/C145A/C150Q/S151G/S152D/G153L/A154D/N157G/S159E limits assumed): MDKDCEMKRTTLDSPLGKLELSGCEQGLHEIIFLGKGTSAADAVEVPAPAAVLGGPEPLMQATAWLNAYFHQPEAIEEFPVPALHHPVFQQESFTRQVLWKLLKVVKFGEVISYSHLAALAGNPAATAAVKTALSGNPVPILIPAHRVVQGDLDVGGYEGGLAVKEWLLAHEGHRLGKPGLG
Description: Binding affinities of SNAP^C145A for BG, CP, BG-Ac, CP-Ac, and BC-Ac were obtained as previously described for HT7 by titrating 5 μM protein and 50 nM CP-TMR against nonfluorescent substrate concentrations ranging from 150 nM to 1.5 mM. Experimental conditions and data analysis were identical despite the fact that 1 mM DTT was added to the buffer and the assay was performed at room temperature.

SNAP-tag (SNAP) [2] = target: T2, SNAP-tag (SNAP) (Homo sapiens, UniProt P16455, A127T/A154D/C150Q/C62A/G131K/G132T/G153L/K125A/K32I/L33F/M134L/N157G/Q115S/Q116H/R128A/R135S/S151G/S152D/S159E); test: SNAP labeling kinetics via microplate reader (FP over time); assay type: biochemical; details: SNAP, plate reader, kinetic model 1
T2 construct: made in house; host or cells: E. coli BL21(DE3)-pLysS
T2 sequence (P16455 1-182 K32I/L33F/C62A/Q115S/Q116H/K125A/A127T/R128A/G131K/G132T/M134L/R135S/C150Q/S151G/S152D/G153L/A154D/N157G/S159E limits assumed): T1 sequence (P16455 1-182 K32I/L33F/C62A/Q115S/Q116H/K125A/A127T/R128A/G131K/G132T/M134L/R135S/C145A/C150Q/S151G/S152D/G153L/A154D/N157G/S159E limits assumed) with A145C
Description: (§1) Labeling kinetics of SNAP and CLIP substrates were measured by recording FP over time using a microplate reader in a manner analogous to that of HT7 labeling kinetics described above with the following changes. The fluorescent substrate concentration was fixed to 20 nM, and protein concentrations were varied from 15 to 900 nM. Measurements were performed in SNAP-FP buffer.
(§2) Kinetic data from microplate reader assays were fitted to a simplified kinetic model (eq 13) described by differential eqs 14–16 using DynaFit. The dead time of the measurements and baseline FP value were put in as fixed parameters. Standard deviations (normal distribution verified) and confidence intervals of fitted parameters were estimated with the Monte Carlo method with standard settings (N = 1000, 5% worst fits discarded). In the case of BG, CP, and BC kinetics, the substrate concentration was fitted by DynaFit to rule out quantification errors of the BG, CP, or BC fluorophores. Accurate fitting of the concentration was ensured by including conditions under which protein is limiting and no maximum FP value was reached.

CLIP-tag (CLIP) = target: T3, CLIP-tag (CLIP) (Homo sapiens, UniProt P16455, A121V/A127T/A154D/C150Q/C62A/G131N/G132T/G153S/K125A/K32I/L33F/M134L/M60I/N157P/Q115S/Q116H/R128A/R135D/S151G/S152D/S159L/Y114E); test: CLIP labeling kinetics via microplate reader (FP over time); assay type: biochemical; details: CLIP cross-reactivity
T3 construct: made in house; host or cells: E. coli BL21(DE3)-pLysS
T3 sequence (P16455 1-182 K32I/L33F/M60I/C62A/Y114E/Q115S/Q116H/A121V/K125A/A127T/R128A/G131N/G132T/M134L/R135D/C150Q/S151G/S152D/G153S/A154D/N157P/S159L limits assumed): T1 sequence (P16455 1-182 K32I/L33F/C62A/Q115S/Q116H/K125A/A127T/R128A/G131K/G132T/M134L/R135S/C145A/C150Q/S151G/S152D/G153L/A154D/N157G/S159E limits assumed) with M60I, Y114E, A121V, K131N, S135D, A145C, L153S, G157P, E159L
Description: as §1, §2

[3] = target: T4, hAGT (human O^6-alkylguanine-DNA alkyltransferase) (Homo sapiens, UniProt P16455); test: hAGT labeling kinetics via microplate reader (FP over time); assay type: biochemical
T4 construct: StrepTag-II (N); enterokinase cleavage site (N); His10 (C); made in house; host or cells: E. coli BL21(DE3)-pLysS
T4 sequence (P16455 1-207): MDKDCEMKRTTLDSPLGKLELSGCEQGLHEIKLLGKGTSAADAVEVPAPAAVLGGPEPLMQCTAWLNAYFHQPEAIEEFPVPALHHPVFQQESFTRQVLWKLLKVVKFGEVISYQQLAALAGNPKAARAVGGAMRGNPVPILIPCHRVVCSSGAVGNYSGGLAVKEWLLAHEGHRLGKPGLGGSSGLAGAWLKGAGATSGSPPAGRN
Description: as §1, §2

SNAP-tag (SNAP) [4] = target: T2, SNAP-tag (SNAP); test: SNAP labeling kinetics via stopped flow (fluorescence anisotropy); assay type: biochemical; details: model 2
Description: Labeling kinetics of SNAP with BG-TMR were measured via stopped-flow in a manner analogous to that for HT7 kinetics described above; however, the final substrate concentration was fixed at 2 μM, and the protein concentration was varied from 1.875 to 50 μM. The activity buffer was supplemented with 1 mM DTT.
(§3) Kinetic stopped-flow data were preprocessed using a custom R script.[36],[37] Recorded pretrigger time points were removed, and time points were adjusted to start at time zero. Values from replicates were averaged. The anisotropy of the free dye was calculated by averaging anisotropy values of the baseline measurements. Preprocessed data were fitted to a kinetic model (eqs 5 and 6) described by differential eqs 7–10 using the DynaFit software.[38] The anisotropy of the free dye and the mixing delay of the stopped-flow machine were set as fixed offset and delay parameters in DynaFit. It was assumed that the protein substrate complex and the reacted product are contributing equally to the anisotropy signal. […] Standard deviations (normal distribution verified) and confidence intervals of fitted parameters were estimated with the Monte Carlo method[39] with standard settings (N = 1000, 5% worst fits discarded). In the case of SNAP kinetics with BG-TMR, the substrate concentration was fitted by DynaFit to rule out quantification errors of the BG-quenched fluorophore. Accurate fitting of the concentration was ensured by including conditions in which protein is limiting and no maximum FP value was reached.

SNAP^C145A [5] = target: T1, SNAP^C145A; test: Affinity of SNAP^C145A for BG and CP fluorescent substrates by fluorescence polarization; assay type: binding
Description: Binding affinities of SNAP^C145A and SNAPf^C145A for BG-Alexa488, CP-Alexa488, BG-fluorescein, CP-fluorescein, BG-MAP555, BG-JF549, BG-TMR(6), BG-TMR(5), CP-TMR, BG-CPY(6), BG-CPY(5), CP-CPY, BG-SiR, CP-SiR, BG-JF646, BG-Atto565, BG-Atto590, BG-sulfo-Cy3, BG-Cy3, BG-sulfo-Cy5, and BG-Cy5 were determined by fluorescence polarization in a manner analogous to that for HT7 affinities for CA substrates described above with the following changes. Fluorescent substrates were titrated at a final concentration of 50 nM against protein concentrations ranging from 0 to 250 μM at room temperature using 0.1 g/L BSA and 1 mM DTT (SNAP-FP buffer). The FP value of each dye fully reacted with the native SNAP/SNAPf was used to improve fitting of the upper plateau of the curves by adding an extra data point at a protein concentration of 0.005 M.

HaloTag7 (HT7) = target: T5, HaloTag7 (HT7) (Rhodococcus sp., UniProt P59336, A155T/A167V/A224E/C128F/C176G/D78G/E160K/E257K/G292T/H272N/K175M/K195N/L47V/L88M/N227D/P291S/S2A/S58T/T264A/V172T/Y273L/Y87F); test: HT7 labeling kinetics via stopped flow (fluorescence anisotropy); assay type: biochemical
T5 construct: made in house; host or cells: E. coli BL21(DE3)-pLysS
T5 sequence (P59336 other isoform, or with tags, fused parts or gaps with the stated changes): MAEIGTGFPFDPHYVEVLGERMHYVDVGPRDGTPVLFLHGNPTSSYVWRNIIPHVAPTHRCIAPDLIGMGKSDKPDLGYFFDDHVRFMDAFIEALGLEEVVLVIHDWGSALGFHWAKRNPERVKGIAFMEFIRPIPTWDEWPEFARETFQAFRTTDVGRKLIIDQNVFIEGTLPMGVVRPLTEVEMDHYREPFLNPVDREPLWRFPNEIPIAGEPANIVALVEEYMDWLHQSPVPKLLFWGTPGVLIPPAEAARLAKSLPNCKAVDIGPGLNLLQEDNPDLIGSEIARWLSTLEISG
Description: Labeling kinetics of HT7 with CA-TMR, CA-JF549, CA-CPY, CA-LIVE580, and CA-JF669 and labeling kinetics of HOB with CA-TMR were measured by recording fluorescence anisotropy changes over time using a BioLogic SFM-400 stopped-flow instrument (BioLogic Science Instruments, Claix, France) in a single-mixing configuration at 37 °C. HT7 protein and substrates in activity buffer were mixed in a 1:1 stoichiometry to reach a recordable speed for these fast reactions and to increase the information content of the traces. Concentrations were varied from 0.125 to 1 μM. The anisotropy of the free substrate was measured to obtain a baseline.
as §3

HT7^D106A = target: T6, HT7^D106A (Rhodococcus sp., UniProt P59336, A155T/A167V/A224E/C128F/C176G/D106A/D78G/E160K/E257K/G292T/H272N/K175M/K195N/L47V/L88M/N227D/P291S/S2A/S58T/T264A/V172T/Y273L/Y87F); test: Affinity of HT7^D106A for CA substrates by fluorescence polarization; assay type: binding; details: HT7^D106A
T6 construct: made in house; host or cells: E. coli BL21(DE3)-pLysS
T6 sequence (P59336 other isoform, or with tags, fused parts or gaps with the stated changes): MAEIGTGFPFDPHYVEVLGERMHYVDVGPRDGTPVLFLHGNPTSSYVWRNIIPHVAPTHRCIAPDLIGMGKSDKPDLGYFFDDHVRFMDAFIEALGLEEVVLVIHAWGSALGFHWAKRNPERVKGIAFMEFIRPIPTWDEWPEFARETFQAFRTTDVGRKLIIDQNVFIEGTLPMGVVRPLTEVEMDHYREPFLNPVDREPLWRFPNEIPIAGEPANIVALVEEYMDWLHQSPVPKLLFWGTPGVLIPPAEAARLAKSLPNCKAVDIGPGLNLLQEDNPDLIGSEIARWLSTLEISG
Description: Binding affinities of HT7^D106A or HOB^D106A for chloroalkane (CA) substrates were determined by fluorescence polarization (FP, eq 1) measurements using a microplate reader (Spark20M, Tecan Group AG, Männedorf, Switzerland). The fluorescent substrates (10 nM) were titrated against different protein concentrations (0–250 μM) in activity buffer supplemented with 0.5 g/L bovine serum albumin (BSA). Assays were performed in black low-volume nonbinding 384-well plates (Corning Inc., Corning, NY) with a final volume of 20 μL. Obtained FP values were averaged and fitted to a single-site binding model (eq 2) to estimate Kd values for each fluorescent substrate. The FP value of each dye fully reacted with the native HT7 was used to improve fitting of the upper plateau of the curves by adding an extra data point at a protein concentration of 0.1 M. [drawing 1] 1 where FP is the fluorescence polarization, I∥ is the fluorescence intensity parallel to the excitation light polarization, I⊥ is the fluorescence intensity perpendicular to the excitation light polarization, and G is the grating factor (G = I∥/I⊥). [drawing 2] 2 where FPmin is the fluorescence polarization of the free fluorophore (lower plateau), FPmax is the maximal fluorescence polarization of fully bound fluorophore (upper plateau), Kd is the dissociation constant, and [protein] is the protein concentration.
Free binding energies were calculated from Kd values according to eq 4: [drawing 4] 4 where ΔG is the free binding energy, R is the universal gas constant, T is the temperature, and Kd is the dissociation constant.

times lower affinity than for BG-Ac (SNAP^C145A [1]): 5 times | Kd (SNAP^C145A [1]; FP competition against CP-TMR, room temperature): 416 µM
SMILES: CC(=O)NCc1ccc(COc2nccc(N)n2)cc1 [BC-Ac]

kapp (value ± standard deviation) (SNAP-tag (SNAP) [2]): (4.29 ± 0.01) × 10^5 M^–1 s^–1 | times slower reaction of CLIP than with BC-TMR (CLIP-tag (CLIP)): 100 times | times slower labeling of hAGT than of SNAP ([3]; hAGT vs SNAP): 130 times | kapp (value ± standard deviation) ([3]; hAGT, plate reader, model 1): (3.38 ± 0.01) × 10^3 M^–1 s^–1 | k2 (± S.D.) (SNAP-tag (SNAP) [4]): 1.24 (± 0.02) s-1 | k-1 (± S.D.) (SNAP-tag (SNAP) [4]): 1.02 (± 0.03) s-1 | fold lower Kd^C145A compared to Kd calculated from stopped-flow experiments using active SNAP (SNAP^C145A [5]; SNAP^C145A vs active SNAP): 3 fold | Kd (SNAP^C145A [5]; SNAP^C145A, fluorescence polarization, room temperature): 0.68 µM
SMILES: CN(C)c1ccc2c(-c3cc(C(=O)NCc4ccc(COc5nc(N)nc6[nH]cnc56)cc4)ccc3C(=O)[O-])c3ccc(=[N+](C)C)cc-3oc2c1 [BG-TMR]

SMILES: CN(C)c1ccc2c(c1)C(C)(C)C1=CC(=[N+](C)C)C=CC1=C2c1cc(C(=O)NCCOCCOCCCCCCCl)ccc1C(=O)[O-] [CA-CPY, chloroalkane-PEG-carbopyronine]
Kd (HaloTag7 (HT7)): 0.046 µM | k2 (± S.D.) (HaloTag7 (HT7); HT7, stopped flow, model 2): 9.9 s-1 and 9.86 (± 0.73) s-1 | k-1 (± S.D.) (HaloTag7 (HT7); HT7, stopped flow, model 2): 7.60 (± 0.98) s-1 | fold decrease in affinity of the 5-substituted compared to the 6-substituted rhodamine substrate (HT7^D106A): 22.7 fold
